Values quoted from earlier work, collected in patent publication US20070054964A1 (Wyeth, priority 2005, published 2007).

Key:
[1] = tested on: dopamine re-uptake
[2] = tested on: neuronal norepinephrine re-uptake
[3] = tested on: α1-adrenergic receptors
[4] = compared with ODV free base
[5] = compared with ODV free base; remark: listed apart in the source
[6] = oral administration, vs venlafaxine, ODV or other salts of ODV
[7] = tested on: neuronal serotonin re-uptake
[8] = tested on: muscarinic receptors
[9] = target: H1-histaminergic receptors (Homo sapiens, UniProt P35367)
[10] = in vitro studies, Muth et al. 1991

Sequence of H1-histaminergic receptors (P35367 whole entry): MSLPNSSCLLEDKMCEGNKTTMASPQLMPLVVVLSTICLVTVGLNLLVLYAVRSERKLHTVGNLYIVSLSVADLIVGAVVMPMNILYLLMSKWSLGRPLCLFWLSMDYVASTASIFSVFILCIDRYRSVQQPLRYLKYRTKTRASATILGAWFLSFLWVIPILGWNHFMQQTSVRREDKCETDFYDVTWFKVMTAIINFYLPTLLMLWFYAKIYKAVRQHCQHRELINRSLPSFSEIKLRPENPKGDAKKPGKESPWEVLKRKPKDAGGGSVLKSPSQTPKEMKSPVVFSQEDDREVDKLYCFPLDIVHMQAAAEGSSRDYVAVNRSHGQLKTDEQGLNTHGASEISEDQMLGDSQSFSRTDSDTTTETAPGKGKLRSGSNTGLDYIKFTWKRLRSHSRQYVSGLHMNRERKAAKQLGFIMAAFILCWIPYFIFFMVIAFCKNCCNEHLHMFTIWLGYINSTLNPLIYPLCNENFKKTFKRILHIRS

Row | SMILES | inhibition of dopamine re-uptake [1] | inhibition of neuronal norepinephrine re-uptake [2] | affinity for α1-adrenergic receptors [3] | permeability [4] | bioavailability [5] | incidence of nausea, vomiting, diarrhea, abdominal pain, headache, vaso-vagal malaise, and/or trismus [6] | solubility compared with venlafaxine | inhibition of neuronal serotonin re-uptake [7] | potency of serotonin re-uptake inhibition compared with venlafaxine [7, 10] | potency of norepinephrine re-uptake inhibition compared with venlafaxine [2, 10] | affinity for muscarinic receptors [8] | affinity for H1-histaminergic receptors [9]
1 | COc1ccc(C(CN(C)C)C2(O)CCCCC2)cc1 (racemic) [Venlafaxine, (±)-1-[2-(dimethylamino)-1-(4-methoxyphenyl)ethyl]-cyclohexanol] | weak inhibitors | potent inhibitors | no significant affinity | – | – | – | – | – | – | – | – | –
2 | CN(C)CC(c1ccc(O)cc1)C1(O)CCCCC1.O=C(O)CCC(=O)O (stereo not drawn) [ODV succinate] | – | – | – | improved | improved | lower incidence | – | – | – | – | – | –
3 | CN(C)CC(c1ccc(O)cc1)C1(O)CCCCC1 (stereo not drawn) [ODV, 1-[2-(dimethyl-amino)-1-(4-phenyl)ethyl]-cyclohexanol] | weak inhibitors | potent inhibitors | no significant affinity | – | – | – | more soluble | potent inhibitors | more potent inhibitor | more potent inhibitor | no significant affinity | no significant affinity
